Experimental data as given in patent publication US12459939B2 (SHANGHAI RINGENE BIOPHARMA CO., LTD., priority 2019, dated 2025).
Like-named read-outs stand apart in the source and are kept apart here.

Key:
[1] = biological target: T1, CYP1A2 (Homo sapiens, UniProt P05177); experiment: Direct inhibition test (DI test) in human liver microsomes, CYP1A2; assay type: in vitro ADME; settings: read-out: inhibitory IC50 on CYP1A2
T1 construct: human liver microsomes (final concentration was 0.2 mg/mL); from tissue; host or cells: human liver microsomes
T1 sequence (P05177 1-516): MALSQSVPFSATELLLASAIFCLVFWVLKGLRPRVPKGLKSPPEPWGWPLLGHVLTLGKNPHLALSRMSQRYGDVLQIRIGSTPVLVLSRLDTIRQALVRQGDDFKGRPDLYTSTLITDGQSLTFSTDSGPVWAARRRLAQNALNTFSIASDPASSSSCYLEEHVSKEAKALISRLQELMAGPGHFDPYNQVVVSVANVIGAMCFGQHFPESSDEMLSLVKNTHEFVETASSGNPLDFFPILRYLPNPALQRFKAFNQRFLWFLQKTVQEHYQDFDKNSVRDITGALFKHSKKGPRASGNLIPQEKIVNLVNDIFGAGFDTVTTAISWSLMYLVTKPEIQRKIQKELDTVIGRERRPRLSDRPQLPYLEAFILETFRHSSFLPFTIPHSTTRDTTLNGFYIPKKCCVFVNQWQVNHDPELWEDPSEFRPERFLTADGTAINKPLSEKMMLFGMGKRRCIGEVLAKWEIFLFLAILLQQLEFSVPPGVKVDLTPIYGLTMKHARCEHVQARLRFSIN
Protocol: (§1) (2) Direct inhibition test (DI test): 1004 of human liver microsomes (final concentration was 0.2 mg/mL) system was subjected to inhibition incubation directly, the system contains NADPH (final concentration was 1 mM), 10 μM compound, positive inhibitor cocktail (ketoconazole 10 μM, quinidine 10 μM, sulfapyrazole 100 μM, a-naphthoflavone 10 μM, tranylcypromine […]), negative control (0.1% DMSO BPS) and mixed probe substrate (midazolam 1004, testosterone 10004, dextromethorphan 10 μM, diclofenac 20 μM, phenacetin 100 μM, mephenytoin 100 μM), the reaction was terminated after incubation for 20 min. The relative enzyme activity was calculated by measuring the relative production of metabolites.

[2] = tested on: most AML cell lines and prostate cancer cell lines; experiment: Proliferation inhibition of different cell lines: AML and prostate cancer lines; assay type: cell-based; settings: read-out: proliferation inhibitory activity IC50
Protocol: (§2) The proliferation inhibitory activity of some of the embodiment compounds against different cell lines such as LNCAP (+R1881), SKM-1, 22RV1, DU145, MOLM13, MDA-PCA-2b, KASUMI 1, THP-1, KG-1, IEC6, H1299, etc., was tested using similar methods in test embodiment 2 and in the literature.

[3] = tested on: H1299; experiment: Proliferation inhibition of H1299 cells; assay type: cell-based; settings: Homo sapiens, NCI-H1299; H1299 cell line; read-out: proliferation inhibitory activity IC50
Protocol: as §2

[4] = biological target: T2, BRD4-BD2 (Homo sapiens, UniProt O60885); experiment: BRD4 AlphaScreen determination (BD2); assay type: binding
T2 construct: purchased ReactionBiologyCorp; (RBC)
Protocol: (§3) (1) 1× Assay buffer was prepared according to the kit requirements of ReactionBiologyCorp. (RBC). (2) Compound concentration gradient preparation: the test compounds were tested at final concentrations starting at 10 μM, with 10 concentrations at 3-fold dilution and single well test was set for each concentration. The positive control compound(+)-JQ-1 was tested at final concentrations starting at 1 μM, with 10 concentrations at 3-fold dilution, and duplicated well test was set for each concentration. The solution was gradient diluted to the corresponding 1000-fold final concentration in a 384-well Source plate, and then 20 nL of the solution was transferred to the 384-well reaction plate with Echo550 to be measured. 20 nL of 100% DMSO was transferred to the Max well, and the highest concentration of the positive compounds were transferred to the Min wells. […] (6) 5 μL of 4× peptide solution was added to each well of the reaction plate, centrifuged at 1000 rpm for 1 min. (7) 10 μL of the assay solution was added, centrifuged at 1000 rpm for 60 seconds, the solution was mixed with gentle shaking, and incubated at room temperature for 60 minutes. (8) Reading with EnVision. (9) The IC50 values of the compounds for protein binding inhibition was obtained by fitting the dose-effect curve with the analytical software GraphPad Prism 5. (See Table 1 for specific values)

[5] = biological target: T3, BRD4-BD1 (Homo sapiens, UniProt O60885); experiment: BRD4 AlphaScreen determination (BD1); assay type: binding
T3 construct: purchased ReactionBiologyCorp; (RBC)
Protocol: as §3

[6] = biological target: T4, CYP2C8 (Homo sapiens, UniProt P10632); experiment: Direct inhibition test (DI test) in human liver microsomes, CYP2C8; assay type: in vitro ADME; settings: read-out: inhibitory IC50 on CYP 2C8
T4 sequence (P10632 1-490): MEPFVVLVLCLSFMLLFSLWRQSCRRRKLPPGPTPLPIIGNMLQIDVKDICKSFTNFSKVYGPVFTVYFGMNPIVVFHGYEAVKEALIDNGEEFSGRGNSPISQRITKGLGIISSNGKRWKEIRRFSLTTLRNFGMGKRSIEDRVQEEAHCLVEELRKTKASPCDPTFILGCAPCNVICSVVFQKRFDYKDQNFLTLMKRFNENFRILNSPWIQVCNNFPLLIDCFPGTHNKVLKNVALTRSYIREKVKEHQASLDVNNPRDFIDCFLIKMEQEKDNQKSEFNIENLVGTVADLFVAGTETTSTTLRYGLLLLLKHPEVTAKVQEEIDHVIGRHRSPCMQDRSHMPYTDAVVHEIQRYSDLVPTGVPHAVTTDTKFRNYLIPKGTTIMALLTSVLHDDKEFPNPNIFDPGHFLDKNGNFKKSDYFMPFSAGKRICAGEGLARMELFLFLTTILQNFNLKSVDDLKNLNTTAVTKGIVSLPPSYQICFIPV
Protocol: as §1

[7] = In vivo pharmacokinetics in mice; settings: male, Balb c, mouse, plasma, po, 5 mg/kg; for AUC / Cmax / half-life: gavage
Protocol: Six male SPF-grade SD rats or Balb c mice (Shanghai B&K laboratory animals) were divided into two groups and the test compounds were configured into suitable solutions or suspensions; one group was administered intravenously and one group was administered orally. Blood was collected by jugular vein puncture, and each sample was collected about 0.2 mL/time point, heparin sodium was used for anticoagulation, the blood collection time points were as follows: before administration and 5, 15 and 30 minutes, 1, 2, 4, 6, 8 and 24 h after administration, the blood sample was collected and placed on ice, centrifuged to separate the plasma (centrifugation conditions: 8000 rpm, 6 minutes, 2-8° C.), and the collected plasma was stored at −80° C. before analysis. The plasma samples were analyzed by LC-MS/MS.
According to the blood drug concentration data of the drug, the pharmacokinetic calculation software WinNonlin5.2 non-compartmental model was used to calculate the pharmacokinetic parameters AUC0-t, AUC0-∞, MRT0-∞, Cmax, Tmax, T1/2 and Vd and other parameters and their mean and standard deviation. In addition, the bioavailability (F) was calculated by the following formula.
For samples with a concentration lower than the lower limit of quantification, when calculating the pharmacokinetic parameters, the samples sampled before reaching Cmax should be calculated as zero, and samples sampled after reaching Cmax should be calculated as unquantifiable (BLQ).

Structure (SMILES)	IC50 [1]	IC50 [2]	IC50 [3]	IC50 [4]	IC50 [5]	IC50 at 20 min [6]	bioavailability [7]	AUC [7]	Cmax [7]	half-life [7]	IC50 ([4]; AlphaScreen, protein binding inhibition, read-out: BRD4-BD2 IC50)	IC50 ([5]; AlphaScreen, protein binding inhibition, read-out: BRD4-BD1 IC50)
CCNC(=O)c1cc2c(=O)n(C)cc(-c3cc(C(C)(C)O)ccc3Oc3c(C)cc(F)cc3C)c2[nH]1 [compound 1, reference compound]	> 15000 nM	< 1000 nM	> 1000 nM	0.65 nM	40 nM	> 15000 nM	> 40%	> 5 µM·h	> 1500 nM	> 3 h		
Cc1cc(F)cc(C)c1Oc1ccc(C(C)(C)O)cc1-c1cn(C)c(=O)c2cc(C(=O)NC3CC(F)(F)C3)[nH]c12 [Embodiment 18, N-(3,3-difluorocyclobutyl)-7-(2-(4-fluoro-2,6-dimethylphenoxy)-5-(2-hydroxyprop-2-yl)phenyl)-5-methyl-4-oxo-4,5-dihydro-1H-pyrrolo[3,2-c] pyridine-2-amide]	> 15000 nM	< 1000 nM	> 1000 nM			> 15000 nM	> 40%	> 5 µM·h	> 1500 nM	> 3 h	< 0.5 nM	117 nM
